From patent publication US20050220899A1, “Use of cisplatin in combination with folic acid for increasing cisplatin efficacy” (priority 2002, published 2005)

Test system: mesothelioma
Assay: Treatment of human mesothelioma patients with cisplatin with or without folic acid
Assay type: in vivo
Details: human patients exhibiting mesothelioma; 75-120 mg/m^2 of cisplatin

N.N.[Cl][Pt][Cl] [cisplatin, cis-diamminedichloroplatinum]
median survival time: 7.2 months
response rate: 8.5%
